Patent publication US6403778B1, “Toxicological response markers” (Incyte Genomics, Inc., priority 1998, dated 2002)

Key:
Conditions in all cases: male, Sprague-Dawley, rat, in vivo
P450 MCA-inducible = test system: P450 MCA-inducible
Protocol: (§1) Animals were monitored daily for physical condition and body weight, and blood samples were assayed for serum alanine transferase (ALT) and aspartate aminotransferase (AST) levels using a diagnostic kit (Sigma Aldrich). Three animals per group were sacrificed approximately 12 hours (h), 24 h, 72 h, 168 h, 336 h and 672 h following the last dose administered. Observed gross pathology and liver weights were recorded at time of necropsy. Liver, kidney, brain, spleen and pancreas from each rat were harvested, flash frozen in liquid nitrogen, and stored at −80° C.
(§2) Frozen liver was homogenized and lysed in TRIZOL reagent (Cat. #10296-028; Life Technologies) following the modifications for liver RNA isolation. Poly(A+) RNA was isolated using an OLIGOTEX kit (Qiagen, Carlsbad, Calif.) and labeled with either Cy3 or Cy5-labeled primers (Operon Technologies, Alameda, Calif.) using the GEMBRIGHT labeling kit (Incyte Genomics). MRNA isolated from tissues of rats dosed with PB was labeled with Cy5 and mRNA isolated from tissues of rats dosed with DMSO was labeled with Cy3. Quantitative and differential expression pattern control cDNAs were added to each labeling reaction. Labeled cDNA was treated with 0.5 M sodium bicarbonate (pH9.2) for 20 min at 85° C. to degrade the RNA and purified using two successive CHROMA SPIN 30 gel filtration spin columns (Clontech, Palo Alto, Calif.). Cy3 labeled control sample and Cy5 labeled experimental sample were combined and precipitated in glycogen, sodium acetate, and ethanol.
(§3) Hybridization reactions contained 9 microliters of probe mixture consisting of 0.2 micrograms each of both Cy3 and Cy5 labeled cDNA synthesis products in 5×SSC, 0.2% SDS hybridization buffer. The probe mixture was heated to 65° C. for 5 min and was aliquoted onto the microarray surface and covered with an 1.8 cm^2 coverslip. The arrays were transferred to a waterproof chamber having a cavity just slightly larger than a microscope slide. The chamber was kept at 100% humidity internally by the addition of 140 microliters of 5×SSC in a corner of the chamber. The chamber containing the arrays was incubated for about 6.5 hours at 60° C. The arrays were washed for 10 min at 45° C. in low stringency wash buffer (1×SSC, 0.1% SDS), three times for 10 min each at 45 ° C. in high stringency wash buffer (0.1×SSC), and then dried.
(§4) The microscope used to detect the reporter-labeled hybridization complexes was outfitted with an Innova 70 mixed gas 10 W laser (Coherent Lasers, Santa Clara, Calif.) capable of generating spectral lines at 488 nm for excitation of Cy3, and 632 nm for excitation of Cy5. The excitation laser light was focused on the array using a 20X microscope objective (Nikon). […]

SEQ ID NOs: 1-47 = test system: SEQ ID NOs: 1-47
Protocol: as §1, §2, §3, §4

P450 ISF/B-NF = test system: P450 ISF/B-NF
Protocol: as §1, §2, §3, §4

P450 LA-omega = test system: P450 LA-omega
Protocol: as §1, §2, §3, §4

c1ccc2c(c1)cc1ccc3cccc4ccc2c1c34 [benzo(a)pyrene] was tested, and the “P450 MCA-inducible upregulated at least once during the time course” value (P450 MCA-inducible) was “greater than 3 fold”, the “SEQ ID NOs: 1-47 up-regulated or downregulated at least once during the time course” value (SEQ ID NOs: 1-47) was “at least 3 fold” and the “P450 ISF/B-NF upregulated at least once during the time course” value (P450 ISF/B-NF) was “greater than 3 fold”. The “P450 LA-omega upregulated at least once during the time course” value (P450 LA-omega) was “greater than 3 fold”.
